# Experimental data published in patent US20140050779A1, “[…]-2 INHIBITORS AND USES THEREOF” (SINGAPORE HEALTH SERVICES PTE. LTD., priority 2011, published 2014).
# “Also recorded” adds a separate entry of the source.
# Experiments:
# [1] = target: T1, hM2 (Homo sapiens, UniProt P08172); test: biochemical
# T1 sequence (P08172 1-466): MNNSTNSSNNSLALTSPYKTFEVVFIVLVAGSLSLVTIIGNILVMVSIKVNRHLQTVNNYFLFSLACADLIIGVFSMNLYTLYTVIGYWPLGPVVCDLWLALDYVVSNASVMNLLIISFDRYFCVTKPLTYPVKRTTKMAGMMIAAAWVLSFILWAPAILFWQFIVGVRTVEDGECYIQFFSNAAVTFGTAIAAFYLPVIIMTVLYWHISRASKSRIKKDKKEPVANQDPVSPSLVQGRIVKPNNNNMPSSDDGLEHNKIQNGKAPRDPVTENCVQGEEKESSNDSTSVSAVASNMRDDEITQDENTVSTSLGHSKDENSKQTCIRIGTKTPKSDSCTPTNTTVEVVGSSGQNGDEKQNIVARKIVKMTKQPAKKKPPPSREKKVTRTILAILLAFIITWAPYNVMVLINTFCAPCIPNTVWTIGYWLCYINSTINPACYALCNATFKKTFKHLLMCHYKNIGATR
# Text: In some embodiments, the TG-2 inhibitors described herein can target the respective TG-2 protein and/or the expression of TGM-2. In other embodiments, the TG-2 inhibitors can further target at least one muscarinic receptor, for example M2 or M3 or inhibit the expression of at least one muscarinic receptor for example, M2 or M3.
# [2] = system: TG-3; test: Western blot of TG proteins in mouse scleral fibroblasts after muscarinic agents; type: cell-based; settings: 0.01-10 μM for 5 days
# [3] = system: TG-1; test: as above; type: cell-based; settings: 0.01-10 μM for 5 days
# [4] = system: TGase 1 transcript; test: qPCR of TGases mRNA in mouse scleral fibroblasts after muscarinic agents; type: cell-based; settings: 0.01-10 μM for 5 days, qPCR normalized to GAPDH
# Method: (§1) P2 cultured mouse scleral fibroblasts were treated with atropine or carbachol at different concentrations of 0.01 μM, 0.1 μM, […], 5 μM and 10 μM for 5 days. Following 5 days of treatment, the total RNA was extracted from these cells and TGases transcript level was quantified via qPCR analysis. Height of bars show the means of three independent samples and error bars represent standard deviation. Values are normalized against GAPDH house keeping genes.
# All cells used in examples described herein were between passages 2-4. Passaged cells were plated at a concentration of 2×10^5/mL into 6 well plates containing DMEM with 10% FBS. The cells were seen to attach to the bottom of the culture wells after 4 hours. Old media was removed from wells and 1 mL of drug was added with fresh full medium and incubated at 37° C. Fresh drugs were replaced daily consecutively for the next 5 days to avoid oxidation. The drugs/media was removed and wells were washed twice with 1×PBS. 200 μl of RIPA lysis buffer was added per well and incubated for 5 minutes and cells were scrapped into an eppendorf tube. The cells were stored at −20° C. until sonication. The cells were sonicated on ice thrice at 20% output power for 5 seconds each time and rested 1 minute in between each turn. Cell debris was spun down at 12000 rpm for 20 minutes. The supernatant was poured into a new eppendorf tube and cell concentrations were determined using the Dc Protein assay Kit (Bio-Rad, MA). Passaged cells were plated at a concentration of 1×10^5 into 6 well plates containing DMEM with 10% FBS. The cells were seen to attach to the bottom of the culture wells after 4 hours. Freshly prepared muscarinic agents' at base line, 0.1, 1, 10 and 100 μM concentrations were added for 5 days (Table 2). The culture medium was removed and fresh medium containing the same muscarinic drug added every day to avoid drug changes such as atropine oxidation. Cell lysate was collected for relative quantitative (q) PCR and protein analysis at day 5.
# Total RNA was isolated from cultured human and mouse scleral fibroblasts using TRIzol reagent (Invitrogen life technologies, USA) in accordance with the manufacturer's instructions Chomczynski P, Sacchi N., “Single-step method of RNA isolation by acid guanidinium thiocyanate-phenol-chloroform extraction”, Anal. Biochem. 1987 April; 162(1):156-9. Genomic DNA was removed by digestion with DNase I (Amp Grade; Invitrogen-Gibco) for 15 minutes at room temperature. One microgram of total RNA was reverse-transcribed with random hexamers by using a first-strand cDNA synthesis kit (Invitrogen-Gibco). qPCR was performed in a 384-well plate format on an Roche 480 LightCycler Detection System (Roche Applied Science, Mannheim, Germany) with efficiency corrected software 4.0. PCR was performed using 50 ng of cDNA of each sample. The pre-validated hydrolysis probes for TG-2 were from human and mouse universal probe library (Roche, CA) and the primers for human and mouse are shown in Table 3. GAPDH Internal Standard (Roche) was used as an endogenous control. To standardize and evaluate scleral gene expression, aliquots of the same cDNA (50 ng) preparation were used as templates in all PCR reactions. The data was analyzed by comparative CT (MCT) method as previously described in Brink N, Szamel M, Young A R, Wittern K P, Bergemann J., “Comparative quantification of IL-1, IL-10, Il-10r, TNF and IL-7 mRNA levels in UV-irradiated human skin in vivo”, Inflamm Res. 2000 June; 49(6):290-6.
# [5] = system: TGase 2 (TGM-2) transcript; test: as above; type: cell-based; settings: 0.01-10 μM for 5 days, qPCR normalized to GAPDH
# Method: as §1
# Murine scleral derived fibroblasts were cultured to passage 2 and treated to exogenous atropine or carbachol at 0.01 μM, 0.1 μM, 1 μM, 5 μM and 10 μM for 5 days. Following 5 days of treatment, the total RNA was extracted from these cells and RT-qPCR performed to determine transcript levels of TGM-2. The levels were normalized to GAPDH internal control. […] Height of bars or symbols represents mean and error bars SD. *: p<0.05 and **: p<0.001.
# All cells used in examples described herein were between passages 2-4. Passaged cells were plated at a concentration of 2×10^5/mL into 6 well plates containing DMEM with 10% FBS. The cells were seen to attach to the bottom of the culture wells after 4 hours. […] The supernatant was poured into a new eppendorf tube and cell concentrations were determined using the Dc Protein assay Kit (Bio-Rad, MA). […] Cell lysate was collected for relative quantitative (q) PCR and protein analysis at day 5. […]
smiles,measurement,setting,value
C[C@@H]1OC(=O)[C@H]2C[C@H]3CCCC[C@@H]3[C@@H](/C=C/[C@H]3CCC[C@H](C)N3C)[C@@H]12 [himbacine],Kd,[1],4 nM
CN1[C@@H]2CC[C@H]1C[C@@H](OC(=O)C(CO)c1ccccc1)C2 (some centres unmarked) [atropine],TG-3 protein level,[2],increased
same,TG-1 protein level,[3],reduced
same,TGase 1 transcript level,[4],down regulated
same,TGase 2 (TGM-2) transcript level,[5],reduction; also recorded: down regulated
